Experimental findings from PubChem BioAssay AID1745844 (Carcinogenic Potency Database (CPDB), 2022) are described below.

The subject of this data set is rodent lifetime carcinogenesis bioassay, tumor incidence TD50. The experiment in a line: chronic cancer bioassays in animals – CPDB, compiled studies (AID 1745844).

The source made the active and inactive calls. The rule behind the calls is not given here.

The term TD50 denotes the 50% point of the dose-response relation for the toxic effect studied. As for `CC(C)(Oc1ccc(C2CC2(Cl)Cl)cc1)C(=O)O` (configuration not stated), the TD50 is, setting by setting: (mouse, strain C57BL/6N, males, in feed, site: liver, lesion: hepatocellular adenoma, dosed 78 weeks, study length 78 weeks) 5.89 mg/kg/day; (mouse, strain C57BL/6N, males, in feed, site: liver, lesion: hepatocellular adenoma, dosed 89 weeks, study length 91 weeks) 19.2 mg/kg/day; (mouse, strain C57BL/6N, males, in feed, site: liver, lesion: hepatocellular carcinoma, dosed 78 weeks, study length 78 weeks) 12.3 mg/kg/day; (mouse, strain C57BL/6N, males, in feed, site: liver, lesion: hepatocellular carcinoma, dosed 89 weeks, study length 91 weeks) 46.4 mg/kg/day; (mouse, strain C57BL/6N, males, in feed, site: liver, lesion: several types, types named in the paper, dosed 78 weeks, study length 78 weeks) 4.17 mg/kg/day; (mouse, strain C57BL/6N, males, in feed, site: liver, lesion: several types, types named in the paper, dosed 89 weeks, study length 91 weeks) 12.1 mg/kg/day. The TD50 was 531 mg/kg/day (rat, strain Fischer 344, females, in feed, site: stomach, glandular, lesion: carcinoid tumor, malignant, dosed 104 weeks, study length 104 weeks) and 103 mg/kg/day (rat, strain Fischer 344, males, in feed, site: stomach, glandular, lesion: carcinoid tumor, malignant, dosed 104 weeks, study length 104 weeks). The carcinogen call runs as follows: (rat, strain Fischer 344, males, in feed, site: liver, lesion: hepatocellular carcinoma, dosed 60 weeks, study length 60 weeks) “positive”; (rat, strain Fischer 344, males, in feed, site: liver, lesion: neoplastic nodule, dosed 60 weeks, study length 60 weeks) “positive”; (rat, strain Fischer 344, males, in feed, site: liver, lesion: several types, types named in the paper, dosed 60 weeks, study length 60 weeks) “positive”; (rat, strain Fischer 344, males, in feed, site: liver, lesion: several types, types named in the paper, dosed 95 weeks, study length 95 weeks) “positive”; (rat, strain Fischer 344, males, in feed, site: testis, lesion: Leydig-cell tumor, dosed 95 weeks, study length 95 weeks) “negative (inactive)”.
Regarding `OCC(O)[C@@H](O)[C@H](O)[C@H](O)CO[C@H]1O[C@H](CO)[C@@H](O)[C@H](O)[C@H]1O` (some centres not stated), the TD50 is, setting by setting: (mouse, strain Cpb:Swiss random, females, in feed, site: any site (literature study), lesion: one or several types, types not named, dosed 104 weeks, study length 104 weeks) 83400 mg/kg/day (inactive); (mouse, strain Cpb:Swiss random, females, in feed, site: lung, lesion: alveolar-cell tumor, dosed 104 weeks, study length 104 weeks) 92600 mg/kg/day (inactive); (mouse, strain Cpb:Swiss random, males, in feed, site: lung, lesion: alveolar-cell tumor, dosed 94 weeks, study length 94 weeks) 26200 mg/kg/day (inactive). The carcinogen call was “negative (inactive)” (mouse, strain Cpb:Swiss random, females, in feed, site: liver, lesion: one or several types, types not named, dosed 104 weeks, study length 104 weeks); “negative (inactive)” (mouse, strain Cpb:Swiss random, males, in feed, site: any site (literature study), lesion: one or several types, types not named, dosed 94 weeks, study length 94 weeks); “negative (inactive)” (mouse, strain Cpb:Swiss random, males, in feed, site: liver, lesion: hepatocellular carcinoma, dosed 94 weeks, study length 94 weeks); “negative (inactive)” (mouse, strain Cpb:Swiss random, males, in feed, site: liver, lesion: neoplastic nodule, dosed 94 weeks, study length 94 weeks).
With `CCn1cc(C(=O)O)c(=O)c2ccc(C)nc21`, the TD50 is, setting by setting: (mouse, strain B6C3F1, females, in feed, site: adrenal medulla, lesion: pheochromocytoma, dosed 103 weeks, study length 104 weeks) 3630 mg/kg/day (inactive); (mouse, strain B6C3F1, females, in feed, site: any site (literature study), lesion: several types, types named in the paper, dosed 103 weeks, study length 104 weeks) 1690 mg/kg/day; (mouse, strain B6C3F1, females, in feed, site: liver, lesion: hepatocellular adenoma + hepatocellular carcinoma + neoplastic nodule, dosed 103 weeks, study length 104 weeks) 3160 mg/kg/day; (mouse, strain B6C3F1, females, in feed, site: lung, lesion: alveolar/bronchiolar adenoma + alveolar/bronchiolar carcinoma, dosed 103 weeks, study length 104 weeks) 4900 mg/kg/day; (mouse, strain B6C3F1, males, in feed, site: any site (literature study), lesion: several types, types named in the paper, dosed 103 weeks, study length 104 weeks) 1330 mg/kg/day; (mouse, strain B6C3F1, males, in feed, site: lung, lesion: alveolar/bronchiolar adenoma + alveolar/bronchiolar carcinoma, dosed 103 weeks, study length 104 weeks) 4600 mg/kg/day. Moreover, the TD50 is 1210 mg/kg/day (mouse, strain B6C3F1, males, in feed, site: subcutaneous tissue, lesion: fibrosarcoma + fibroma, dosed 103 weeks, study length 104 weeks); 6450 mg/kg/day (inactive) (mouse, strain CDF1, females, in feed, site: liver, lesion: hepatocellular adenoma, dosed 76 weeks, study length 85 weeks); 1770 mg/kg/day (inactive) (mouse, strain CDF1, females, in feed, site: lung, lesion: adenocarcinoma, dosed 76 weeks, study length 85 weeks); 1940 mg/kg/day (inactive) (mouse, strain CDF1, males, in feed, site: liver, lesion: hepatocellular carcinoma, dosed 76 weeks, study length 85 weeks); 3100 mg/kg/day (inactive) (mouse, strain CDF1, males, in feed, site: liver, lesion: several types, types named in the paper, dosed 76 weeks, study length 85 weeks); 3980 mg/kg/day (inactive) (mouse, strain CDF1, males, in feed, site: lung, lesion: adenocarcinoma, dosed 76 weeks, study length 85 weeks). The TD50 by setting is: (rat, strain Fischer 344, females, in feed, site: clitoral gland, lesion: adenoma, NOS + carcinoma, NOS + papillary carcinoma + papilloma, NOS, dosed 103 weeks, study length 104 weeks) 372 mg/kg/day; (rat, strain Fischer 344, males, in feed, site: any site (literature study), lesion: several types, types named in the paper, dosed 103 weeks, study length 104 weeks) 7600 mg/kg/day; (rat, strain Fischer 344, males, in feed, site: preputial gland, lesion: adenoma, NOS + carcinoma, NOS + papilloma, NOS, dosed 103 weeks, study length 104 weeks) 138 mg/kg/day; (rat, strain Fischer 344, males, in feed, site: preputial gland, lesion: adenoma, NOS + papilloma, NOS, dosed 103 weeks, study length 104 weeks) 358 mg/kg/day; (rat, strain Fischer 344, males, in feed, site: preputial gland, lesion: adenoma, NOS, dosed 103 weeks, study length 104 weeks) 301 mg/kg/day; (rat, strain Fischer 344, males, in feed, site: preputial gland, lesion: carcinoma, NOS, dosed 103 weeks, study length 104 weeks) 211 mg/kg/day. Also, the carcinogen call is, setting by setting: (mouse, strain CDF1, females, in feed, site: any site (literature study), lesion: one or several types, types not named, dosed 76 weeks, study length 85 weeks) “negative (inactive)”; (mouse, strain CDF1, females, in feed, site: lung, lesion: several types, types named in the paper, dosed 76 weeks, study length 85 weeks) “negative (inactive)”; (mouse, strain CDF1, males, in feed, site: any site (literature study), lesion: one or several types, types not named, dosed 76 weeks, study length 85 weeks) “negative (inactive)”; (mouse, strain CDF1, males, in feed, site: liver, lesion: hepatocellular adenoma, dosed 76 weeks, study length 85 weeks) “negative (inactive)”; (mouse, strain CDF1, males, in feed, site: lung, lesion: several types, types named in the paper, dosed 76 weeks, study length 85 weeks) “negative (inactive)”.
For the compound `S=C(SSSSSSC(=S)N1CCCCC1)N1CCCCC1`, the TD50 runs as follows: (mouse, strain B6AKF1, females, oral dosing, site: any site (literature study), lesion: several types, types named in the paper, dosed 76 weeks, study length 76 weeks) 120 mg/kg/day (inactive); (mouse, strain B6C3F1, females, oral dosing, site: any site (literature study), lesion: several types, types named in the paper, dosed 76 weeks, study length 76 weeks) 83.1 mg/kg/day (inactive); (mouse, strain B6C3F1, females, oral dosing, site: lung, lesion: adenoma, dosed 76 weeks, study length 76 weeks) 83.1 mg/kg/day (inactive); (mouse, strain B6C3F1, males, oral dosing, site: any site (literature study), lesion: several types, types named in the paper, dosed 76 weeks, study length 76 weeks) 52.5 mg/kg/day (inactive); (mouse, strain B6C3F1, males, oral dosing, site: liver, lesion: hepatoma, dosed 76 weeks, study length 76 weeks) 113 mg/kg/day (inactive); (mouse, strain B6C3F1, males, oral dosing, site: lung, lesion: adenoma, dosed 76 weeks, study length 76 weeks) 113 mg/kg/day (inactive). The carcinogen call is “negative (inactive)” (mouse, strain B6AKF1, females, oral dosing, site: liver, lesion: hepatoma, dosed 76 weeks, study length 76 weeks); “negative (inactive)” (mouse, strain B6AKF1, females, oral dosing, site: lung, lesion: adenoma, dosed 76 weeks, study length 76 weeks); “negative (inactive)” (mouse, strain B6AKF1, males, oral dosing, site: any site (literature study), lesion: several types, types named in the paper, dosed 76 weeks, study length 76 weeks); “negative (inactive)” (mouse, strain B6AKF1, males, oral dosing, site: liver, lesion: hepatoma, dosed 76 weeks, study length 76 weeks); “negative (inactive)” (mouse, strain B6AKF1, males, oral dosing, site: lung, lesion: adenoma, dosed 76 weeks, study length 76 weeks); “negative (inactive)” (mouse, strain B6C3F1, females, oral dosing, site: liver, lesion: hepatoma, dosed 76 weeks, study length 76 weeks).
For the compound `Brc1cc(-c2ccc(Br)c(Br)c2Br)cc(Br)c1Br`, the TD50 (rat, strain Sprague-Dawley Spartan, females, in feed, site: any site (literature study), lesion: several types, types named in the paper, dosed 57 weeks, study length 57 weeks) was 5.91 mg/kg/day (inactive). Besides, the carcinogen call (rat, strain Sprague-Dawley Spartan, females, in feed, site: liver, lesion: one or several types, types not named, dosed 57 weeks, study length 57 weeks) is “negative (inactive)”.
For the compound `Cc1ccc(O)c(O)c1`, the TD50 by setting is: (rat, strain F344/DuCrj, females, in feed, site: forestomach, lesion: squamous-cell carcinoma, dosed 104 weeks, study length 104 weeks) 1500 mg/kg/day; (rat, strain F344/DuCrj, females, in feed, site: forestomach, lesion: squamous-cell papilloma, dosed 104 weeks, study length 104 weeks) 253 mg/kg/day; (rat, strain F344/DuCrj, females, in feed, site: stomach, glandular, lesion: adenocarcinoma, dosed 104 weeks, study length 104 weeks) 1090 mg/kg/day; (rat, strain F344/DuCrj, females, in feed, site: stomach, glandular, lesion: sarcoma, dosed 104 weeks, study length 104 weeks) 6500 mg/kg/day; (rat, strain F344/DuCrj, males, in feed, site: forestomach, lesion: squamous-cell carcinoma, dosed 104 weeks, study length 104 weeks) 719 mg/kg/day; (rat, strain F344/DuCrj, males, in feed, site: forestomach, lesion: squamous-cell papilloma, dosed 104 weeks, study length 104 weeks) 468 mg/kg/day. Moreover, the TD50 is 656 mg/kg/day (rat, strain F344/DuCrj, males, in feed, site: stomach, glandular, lesion: adenocarcinoma, dosed 104 weeks, study length 104 weeks) and 3830 mg/kg/day (rat, strain F344/DuCrj, males, in feed, site: stomach, glandular, lesion: sarcoma, dosed 104 weeks, study length 104 weeks). Further, the carcinogen call was “positive” (rat, strain F344/DuCrj, females, in feed, site: stomach, glandular, lesion: adenoma, dosed 104 weeks, study length 104 weeks) and “positive” (rat, strain F344/DuCrj, males, in feed, site: stomach, glandular, lesion: adenoma, dosed 104 weeks, study length 104 weeks).
